“Also recorded” adds a separate entry of the source.
Experiment: Pharmacokinetics in wild-type mice with or without rifampin co-dose
Assay type: in vivo, wild-type FVB male mice
Experimental: Age-matched Oatp1a/1b cluster-knockout, OATP1B1- or OATP1B3-knockin mice humanized on the Oatp1a/1b-knockout background, and wild-type FVB male mice were purchased from Taconic Biosciences (Hudson, N.Y., USA). Mice were between 8 and 10 weeks of age (22-34 g) at the time of study. Compound 1 was administered at a dose of 0.5 mg/kg coadministered with either vehicle or rifampin (30 mg/kg). Blood and liver samples were collected at 0.083, 0.25, 0.5, 1, 1.5, 3, 6 hours. Plasma was isolated from blood samples by centrifugation. All samples were stored at −80° C. until bioanalysis.
Compound 1 was dosed via intravenous administration to WT, humanized, and KO mice. Blood, urine, and feces were collected from the animals over 6 hours. Blood spots were collected and expelled FTA™ DMPK-B DBS Card (GE Healthcare, Life Sciences, Whatman™) within the appropriate sample circle. Pharmacokinetics of Compound 1 in WT animals was also assessed after co-administration with rifampin. Liver samples were also collected from WT animals and frozen until analysis. All samples were analyzed using LC-MS/MS and the pharmacokinetics parameters of Compound 1 were determined with Phoenix WinNonlin using non-compartmental analysis.
FIG. 2A through 2C show an in vivo PK profile and elimination of Compound 1 with and without a co-dose of the Oatp/OATP inhibitor Rifampin in different mouse models.

fold decrease of liver/plasma Kp with rifampin (male, FVB, mouse, liver and plasma, with rifampin 30 mg/kg co-dosed, wild type mice, IV, read-out: decrease of Kp (liver/plasma) in the presence of Rifampin): 5
decrease of biliary excretion on co-dosing rifampin (mouse models of FIG. 2A-2C (wild type and OATP1Bs humanized), rifampin co-dose): 66-79%
increase of Cmax in the presence of rifampin (wild type mice, IV): about 2 fold
increase in plasma exposure in the presence of rifampin (wild-type mice, 0.5 mg/kg IV, rifampin 30 mg/kg): 5.4 fold
SMILES: O=[P@]1(S)OC[C@H]2O[C@@H]3[C@H](F)[C@@H]2O[P@](=O)(S)OC[C@H]2O[C@H]([C@H](F)[C@@H]2O1)n1cnc2c(ncnc21)NC/C=C/CNc1ncnc2c1ncn23 [Compound 1]
liver exposure (AUC) in the presence vs absence of rifampin (wild-type mice, IV, rifampin co-administered): did not change significantly; also recorded: comparable

From patent publication US12564600B2, “System for enhancing therapeutic compliance of the anti-cancer compound E7766” (Eisai R&D Management Co., Ltd., priority 2019, dated 2026)
